Molecules are shown by their SMILES.

Assay [1] relates to rabbit corneal epithelial cell. In words: Test Example 1: increase in cell number, cultured rabbit corneal epithelial cell (Cell Counting Kit-8). The format is cell-based. The conditions noted are these: 48 hours, no addition group = 100%, average ± standard deviation, N = 5. As for the experimental part: A male rabbit (Japanese white, […] LABES Co., Ltd.) was used. The experimental animal was used according to the International Guiding Principles for Biomedical Research Involving Animals.
A corneal epithelial cell was prepared from rabbit eyeballs. A cornea was excised from isolated eyeballs, and stored in Dulbecco's phosphate buffered saline (D-PBS; Invitrogen), and this was transferred to a clean bench. The following cell preparation procedures were all performed sterilely.
The isolated corneal segment was washed with D-PBS with 1% penicillin-streptomycin (Invitrogen) added thereto three times, and was transferred to a minimum essential medium (MEM; Invitrogen). A corneal endothelial cell and a Descemet's membrane of the corneal segment immersed in MEM were peeled with a knife (Alcon) for ocular operation, and the corneal segment (corneal stroma and corneal epithelium) after peeling was transferred to MEM to which dispase II (Roche Diagnostics) had been added to 2.4 U/mL. This was incubated at 37° C. for 1 hour and, thereafter, the dispase II-treated corneal segment was transferred to MEM. The corneal epithelium of the corneal segment immersed in MEM was peeled with the knife for ocular operation, and the corneal segment residue (corneal stroma) was removed from MEM. The peeled corneal epithelial cell and the MEM containing same were recovered in a 50 mL centrifuge tube, subjected to centrifugation at 1,500 rpm for 5 minutes at room temperature. The supernatant was discarded to give a corneal epithelial cell layer. To the corneal epithelial cell layer was added 1 mL of trypsin-EDTA (Invitrogen) and, after thorough mixing, the cells were incubated at 37° C. for 5 minutes to dissociate adhesion between the cells. To this was added 9 mL of MEM containing 10% fetal bovine serum (FBS; Invitrogen) to stop the enzymatic reaction, and this was subjected again to centrifugation at room temperature and 1,500 rpm for 5 minutes to obtain the corneal epithelial cell layer. To the resulting corneal epithelial cell layer was added […] of a serum-free liquid medium for proliferating a normal rabbit corneal epithelial cell (RCGM2; Kurabo Industries LTD.) to suspend the cell, and this was seeded into a culture dish (IWAKI) for culturing a cell having a diameter of 10 cm, to which 9 mL of RCGM2 had been added. […] The culture medium was exchanged with a fresh culture medium every 48 hours until the test day.
As the test substance, the following compounds were used. • PPARα agonist: WY-14643 (Calbiochem) and fenofibrate (Sigma-Aldrich) • PPARδ agonist: L-165041 (Sigma-Aldrich)
For studying the effect of promoting cell proliferation by each test substance, a culture medium prepared by removing a mouse-derived epithelial growth factor (mEGF) attached to RCGM2, from RCGM2, was used as a basal medium, while as a positive control for confirming the effect of promoting cell proliferation, a medium with an mEGF added thereto (basal medium+10 ng/mL mEGF) was used according to instructions of an RCGM2 preparation protocol.
As a culture dish for a test of cell proliferation promotion, a 96-well culture dish for tissue culture (Corning) was used. On the day before the test, each 50 μL of 0.01% type I collagen (Nitta Gelatin Inc.) was dispensed into each well of the culture dish, and coating was performed at 4° C. until immediately before the test. On the test day, after a type I collagen solution was removed, the bottom of the culture dish was washed three times using D-PBS, and this was used in the test as a collagen-treated culture dish.
In the test, a rabbit corneal epithelial cell which had been cultured to subconfluent in a culture dish having a diameter of 10 cm was used. After the culture medium was removed, the bottom of the culture dish was washed two times using D-PBS, to this was added 1 mL of trypsin-EDTA, this was incubated at 37° C. for 5 minutes and thereby, the cell was peeled from the bottom of the culture dish. […]
(Formazan colour is commonly taken as a measure of viable cells.)

For assay [2], the system named is monkey meibomian gland epithelial cell. In words: Test Example 8: increase in number of monkey meibomian gland epithelial cells (Cell Counting Kit-8). The assay is classed as cell-based. The conditions noted are these: 3 x 48 hours; for Cell proliferation (%): no addition group = 100%, average ± standard deviation, N = 5. The source says: For studying the effect of promoting cell proliferation by each test substance, a culture medium prepared by removing the supplement attached to DK-SFM, from DK-SFM, was used as a basal medium, while as a positive control for confirming the cell proliferation promoting effect, a culture medium with the supplement added thereto (basal medium+supplement) was used according to instructions of an DK-SFM preparation protocol. […] In the test, a monkey meibomian gland epithelial cell which had been cultured to subconfluent, suspended in a cell banker (Nippon Zenyaku Kogyo Co., Ltd.), and cryopreserved in liquid nitrogen was used. The cell which had been cryopreserved was thawed, and transferred to a 50 mL centrifuge tube and a 10-fold amount of DK-SFM was added thereto. […] Each 64 μL of this cell suspension was dispensed into each well so that the cell number per bottom area (0.32 cm^2) of the collagen-treated 96-well culture dish for tissue culture became 4×10^4 cells/cm^2. […] After 48 hours from initial culture medium exchange, the culture medium was exchanged with a freshly prepared culture medium of each of [1] to [4]. Further, after 48 hours therefrom, the culture medium was exchanged again with a freshly prepared culture medium of each of [1] to [4].

For `CCCc1c(OCCCOc2ccc(OCC(=O)O)cc2)ccc(C(C)=O)c1O` [L-165041, (4-(3-(4-acetyl-3-hydroxy-2-propyl)phenoxy)propoxyphenoxy)acetic acid], the “Cell proliferation (%)” value in assay [1] (10^−6 M) is recorded as 182.2 ± 13.0%; in assay [1] (10^−7 M), 163.3 ± 8.2%; in assay [2] (10^−6 M), 169.1 ± 19.6%; in assay [2] (10^−7 M), 142.9 ± 22.3%. In addition, in assay [2] (10^−6 M), the “cell proliferation compared to the no addition group (in words)” value was “significantly higher than in the no addition group”.

The values above are taken from patent US9096538B2, “Pharmaceutical comprising PPAR agonist” (Senju Pharmaceutical Co., Ltd., priority 2005, dated 2015).
